The record followed here is patent US10308881B2, “Process to produce oil with low polyaromatic hydrocarbon content” (PT PERTAMINA (PERSERO), priority 2010, dated 2019).

In the series the test system is Salmonella typhimurium TA 1535. Briefly: Mutagenicity test (AMES Test, OECD Guidelines for Testing of Chemicals No. 471). It is filed as cell-based. The following applies: without dilution. From the text:
One of the important consideration published in the European Commission 2005/69/EC (European legislation) confirmed the restriction that the level of 8 Grimmers PAHs especially Benzo(a)pyrene (BaP) with amount exceeding the allowed limit will be considered as carcinogenic, mutagenic and toxic, and thereby will be prohibited to produce and distribute within the European legislation area. The presence of PAHs can be detected qualitatively and quantitatively using Benzo(a)Pyrene (BaP) as marker. Commonly known method to measure carcinogenic and mutagenic compound is ASTM E 1687-98 method (Ames test method for determining carcinogenic potential of Virgin Base Oils in Metalworking Fluids) and also Ames test based on OECD Guidelines for Testing of Chemicals No 471(1997). In the present invention method of AMES test using Salmonella typhimurium TA 1535 as microbes that is very sensitive to mutagenic compounds.
The mutagenity test was conducted using AMES Test based on OECD Guidelines for Testing of Chemicals No. 471 (1997). In this test Salmonella typhimurium TA 1535 was used as microbe material which was very sensitive to mutagenic compound. The number of colony which grew was an indicator of mutagenic activity of the PAH compound in the DAE Feed, TDAE-1 and TDAE-2, respectively. […]

Each structure is given as a SMILES string.

`C[S+](C)[O-]` [DMSO, dimethylsulfoxide]: the “Average Number of Colony Koloni” value is on record as 377 (With S-9 Mix) and 314 (Without S-9 Mix).
